Test results: the NIST ThermoML archive (doi:10.1021/je500886a)

Assay: mn = molality of the nth substance listed, in mol/kg
Conditions: 101 kPa, Liquid

O=C[C@@H](O)[C@H](O)[C@H](O)CO [D-(-)-arabinose] + O
Conditions | mass density, 288.15 K [kg/m3] | mass density, 298.15 K [kg/m3] | mass density, 308.15 K [kg/m3] | mass density, 318.15 K [kg/m3] | viscosity, 288.15 K [mPa·s] | viscosity, 298.15 K [mPa·s] | viscosity, 308.15 K [mPa·s] | viscosity, 318.15 K [mPa·s]
m1 = 0.05173 | 1002.09 | 999.97 | 996.94 | 993.08 | – | – | – | –
m1 = 0.05178 | – | – | – | – | 1.157 | 0.905 | 0.73 | 0.604
m1 = 0.0695 | – | – | – | – | 1.164 | 0.909 | 0.734 | 0.608
m1 = 0.07102 | 1003.18 | 1001.05 | 998 | 994.13 | – | – | – | –
m1 = 0.08979 | – | – | – | – | 1.17 | 0.915 | 0.738 | 0.611
m1 = 0.09055 | 1004.28 | 1002.13 | 999.06 | 995.18 | – | – | – | –
m1 = 0.1077 | – | – | – | – | 1.177 | 0.92 | 0.741 | 0.614
m1 = 0.1093 | 1005.32 | 1003.17 | 1000.07 | 996.18 | – | – | – | –
m1 = 0.1244 | 1006.17 | 1004 | 1000.88 | 996.98 | – | – | – | –
m1 = 0.1267 | – | – | – | – | 1.182 | 0.925 | 0.745 | 0.616
m1 = 0.1476 | 1007.45 | 1005.26 | 1002.12 | 998.21 | – | – | – | –
m1 = 0.151 | – | – | – | – | 1.191 | 0.932 | 0.75 | 0.621

OC[C@@H](O)[C@@H](O)[C@H](O)[C@@H](O)CO [D-sorbitol] + O
Conditions | mass density, 288.15 K [kg/m3] | mass density, 298.15 K [kg/m3] | mass density, 308.15 K [kg/m3] | mass density, 318.15 K [kg/m3] | viscosity, 288.15 K [mPa·s] | viscosity, 298.15 K [mPa·s] | viscosity, 308.15 K [mPa·s] | viscosity, 318.15 K [mPa·s]
m1 = 0.0479 | – | – | – | – | 1.169 | 0.914 | 0.736 | 0.609
m1 = 0.05068 | 1002.38 | 1000.23 | 997.2 | 993.33 | – | – | – | –
m1 = 0.06467 | – | – | – | – | 1.183 | 0.921 | 0.742 | 0.614
m1 = 0.07063 | 1003.63 | 1001.46 | 998.41 | 994.53 | – | – | – | –
m1 = 0.08656 | – | – | – | – | 1.197 | 0.932 | 0.75 | 0.62
m1 = 0.09024 | 1004.83 | 1002.65 | 999.59 | 995.7 | – | – | – | –
m1 = 0.1057 | 1005.77 | 1003.58 | 1000.51 | 996.61 | – | – | – | –
m1 = 0.106 | – | – | – | – | 1.21 | 0.942 | 0.756 | 0.624
m1 = 0.1249 | – | – | – | – | 1.226 | 0.951 | 0.765 | 0.631
m1 = 0.13 | 1007.24 | 1005.03 | 1001.95 | 998.04 | – | – | – | –
m1 = 0.1451 | – | – | – | – | 1.239 | 0.959 | 0.772 | 0.635
m1 = 0.1465 | 1008.23 | 1006.01 | 1002.93 | 999 | – | – | – | –

O=C[C@H](O)[C@@H](O)[C@@H](O)[C@H](O)CO [(+)-galactose] + O
Conditions | mass density [kg/m3] | viscosity [mPa·s]
288.15 K, m1 = 0.05001 | – | 1.166
288.15 K, m1 = 0.05096 | 1002.7 | –
288.15 K, m1 = 0.06903 | 1003.95 | –
288.15 K, m1 = 0.07068 | – | 1.178
288.15 K, m1 = 0.09042 | 1005.42 | –
288.15 K, m1 = 0.09059 | – | 1.189
288.15 K, m1 = 0.1099 | – | 1.199
288.15 K, m1 = 0.1289 | – | 1.208
288.15 K, m1 = 0.1513 | – | 1.22
288.15 K, m1 = 0.1552 | 1009.81 | –
298.15 K, m1 = 0.05001 | – | 0.91
298.15 K, m1 = 0.05096 | 1000.58 | –
298.15 K, m1 = 0.06903 | 1001.82 | –
298.15 K, m1 = 0.07068 | – | 0.919
298.15 K, m1 = 0.09042 | 1003.27 | –
298.15 K, m1 = 0.09059 | – | 0.927
298.15 K, m1 = 0.1099 | – | 0.935
298.15 K, m1 = 0.1102 | 1004.61 | –
298.15 K, m1 = 0.1289 | – | 0.941
298.15 K, m1 = 0.1322 | 1006.08 | –
298.15 K, m1 = 0.1513 | – | 0.951
308.15 K, m1 = 0.05001 | – | 0.734
308.15 K, m1 = 0.05096 | 997.56 | –
308.15 K, m1 = 0.06903 | 998.79 | –
308.15 K, m1 = 0.07068 | – | 0.741
308.15 K, m1 = 0.09042 | 1000.22 | –
308.15 K, m1 = 0.09059 | – | 0.747
308.15 K, m1 = 0.1099 | – | 0.753
308.15 K, m1 = 0.1102 | 1001.54 | –
308.15 K, m1 = 0.1289 | – | 0.758
308.15 K, m1 = 0.1322 | 1003 | –
308.15 K, m1 = 0.1513 | – | 0.766
308.15 K, m1 = 0.1552 | 1004.51 | –
318.15 K, m1 = 0.05001 | – | 0.607
318.15 K, m1 = 0.05096 | 993.7 | –
318.15 K, m1 = 0.06903 | 994.91 | –
318.15 K, m1 = 0.07068 | – | 0.612
318.15 K, m1 = 0.09042 | 996.33 | –
318.15 K, m1 = 0.09059 | – | 0.617
318.15 K, m1 = 0.1099 | – | 0.621
318.15 K, m1 = 0.1102 | 997.64 | –
318.15 K, m1 = 0.1289 | – | 0.625
318.15 K, m1 = 0.1322 | 999.07 | –
318.15 K, m1 = 0.1513 | – | 0.63
318.15 K, m1 = 0.1552 | 1000.57 | –

O=C[C@H](O)[C@@H](O)[C@H](O)CO [D-xylose] + O
Conditions | mass density, 288.15 K [kg/m3] | mass density, 298.15 K [kg/m3] | mass density, 308.15 K [kg/m3] | mass density, 318.15 K [kg/m3] | viscosity, 288.15 K [mPa·s] | viscosity, 298.15 K [mPa·s] | viscosity, 308.15 K [mPa·s] | viscosity, 318.15 K [mPa·s]
m1 = 0.0491 | 1001.82 | 999.72 | 996.71 | 992.87 | – | – | – | –
m1 = 0.04924 | – | – | – | – | 1.161 | 0.904 | 0.73 | 0.605
m1 = 0.06784 | – | – | – | – | 1.167 | 0.911 | 0.735 | 0.609
m1 = 0.07084 | 1002.99 | 1000.89 | 997.87 | 994.02 | – | – | – | –
m1 = 0.08985 | 1004.02 | 1001.9 | 998.88 | 995.03 | – | – | – | –
m1 = 0.09005 | – | – | – | – | 1.176 | 0.917 | 0.74 | 0.612
m1 = 0.1038 | – | – | – | – | 1.183 | 0.921 | 0.743 | 0.615
m1 = 0.1144 | 1005.32 | 1003.21 | 1000.16 | 996.31 | – | – | – | –
m1 = 0.1285 | – | – | – | – | 1.19 | 0.929 | 0.749 | 0.62
m1 = 0.1303 | 1006.16 | 1004.04 | 1000.99 | 997.13 | – | – | – | –
m1 = 0.1485 | 1007.12 | 1005 | 1001.94 | 998.07 | – | – | – | –
m1 = 0.151 | – | – | – | – | 1.201 | 0.936 | 0.754 | 0.624

OC[C@@H](O)C(O)[C@H](O)CO [D-arabitol] + O
Conditions | mass density, 288.15 K [kg/m3] | mass density, 298.15 K [kg/m3] | mass density, 308.15 K [kg/m3] | mass density, 318.15 K [kg/m3] | viscosity, 288.15 K [mPa·s] | viscosity, 298.15 K [mPa·s] | viscosity, 308.15 K [mPa·s] | viscosity, 318.15 K [mPa·s]
m1 = 0.05025 | – | – | – | – | 1.162 | 0.906 | 0.73 | 0.604
m1 = 0.0542 | 1001.87 | 999.73 | 996.7 | 992.83 | – | – | – | –
m1 = 0.06886 | – | – | – | – | 1.172 | 0.913 | 0.735 | 0.608
m1 = 0.07304 | 1002.82 | 1000.65 | 997.61 | 993.72 | – | – | – | –
m1 = 0.08867 | 1003.59 | 1001.41 | 998.35 | 994.45 | – | – | – | –
m1 = 0.09155 | – | – | – | – | 1.183 | 0.92 | 0.74 | 0.611
m1 = 0.1053 | 1004.4 | 1002.21 | 999.14 | 995.22 | – | – | – | –
m1 = 0.1061 | – | – | – | – | 1.189 | 0.925 | 0.744 | 0.613
m1 = 0.1258 | – | – | – | – | 1.198 | 0.931 | 0.748 | 0.617
m1 = 0.1323 | 1005.72 | 1003.5 | 1000.41 | 996.46 | – | – | – | –
m1 = 0.1507 | – | – | – | – | 1.209 | 0.94 | 0.754 | 0.621
m1 = 0.1512 | 1006.64 | 1004.39 | 1001.3 | 997.33 | – | – | – | –

O=C[C@@H](O)[C@@H](O)[C@H](O)[C@H](O)CO [D-mannose] + O
Conditions | mass density, 288.15 K [kg/m3] | mass density, 298.15 K [kg/m3] | mass density, 308.15 K [kg/m3] | mass density, 318.15 K [kg/m3] | viscosity, 288.15 K [mPa·s] | viscosity, 298.15 K [mPa·s] | viscosity, 308.15 K [mPa·s] | viscosity, 318.15 K [mPa·s]
m1 = 0.0501 | – | – | – | – | 1.168 | 0.912 | 0.735 | 0.608
m1 = 0.05278 | 1002.76 | 1000.64 | 997.63 | 993.78 | – | – | – | –
m1 = 0.07151 | 1004.03 | 1001.9 | 998.87 | 995.02 | 1.181 | 0.92 | 0.742 | 0.613
m1 = 0.09003 | 1005.28 | 1003.14 | 1000.09 | 996.23 | – | – | – | –
m1 = 0.09353 | – | – | – | – | 1.191 | 0.929 | 0.749 | –
m1 = 0.1065 | 1006.39 | 1004.23 | 1001.17 | 997.3 | – | – | – | –
m1 = 0.1123 | – | – | – | – | 1.201 | 0.936 | 0.756 | 0.624
m1 = 0.1277 | – | 1005.63 | 1002.56 | 998.67 | – | – | – | –
m1 = 0.1318 | – | – | – | – | 1.214 | 0.945 | 0.761 | 0.628
m1 = 0.1488 | – | – | 1003.92 | 1000.02 | – | – | – | –
m1 = 0.1515 | – | – | – | – | 1.225 | 0.952 | 0.766 | 0.634
